PubChem BioAssay (NCI)
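Results reflect a 48-hour exposure of cells in 96-well plates to compound at five concentrations. TGI is the concentration that stops growth completely.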

Experiments:
Assay in all cases: growth of human tumour cells (NCI), 48 h
786-0 renal = tested on: 786-0 renal
A498 renal = tested on: A498 renal
A549 NSCLC = tested on: A549 NSCLC
ACHN renal = tested on: ACHN renal
CAKI-1 renal = tested on: CAKI-1 renal
CCRF-CEM leukemia = tested on: CCRF-CEM leukemia
COLO 205 colon = tested on: COLO 205 colon
DLD-1 colon = tested on: DLD-1 colon
DMS 114 small cell lung = tested on: DMS 114 small cell lung
DMS 273 small cell lung = tested on: DMS 273 small cell lung
EKVX NSCLC = tested on: EKVX NSCLC
HCC-2998 colon = tested on: HCC-2998 colon
HCT-116 colon = tested on: HCT-116 colon
HCT-15 colon = tested on: HCT-15 colon
HL-60(TB) leukemia = tested on: HL-60(TB) leukemia
HOP-18 NSCLC = tested on: HOP-18 NSCLC
HOP-62 NSCLC = tested on: HOP-62 NSCLC
HOP-92 NSCLC = tested on: HOP-92 NSCLC
HT29 colon = tested on: HT29 colon
IGROV1 ovarian = tested on: IGROV1 ovarian
K-562 leukemia = tested on: K-562 leukemia
KM12 colon = tested on: KM12 colon
KM20L2 colon = tested on: KM20L2 colon
LOX IMVI melanoma = tested on: LOX IMVI melanoma
LXFL 529 NSCLC = tested on: LXFL 529 NSCLC
M14 melanoma = tested on: M14 melanoma
M19-MEL melanoma = tested on: M19-MEL melanoma
MALME-3M melanoma = tested on: MALME-3M melanoma
NCI-H226 lung = tested on: NCI-H226 lung
NCI-H23 lung = tested on: NCI-H23 lung
NCI-H460 lung = tested on: NCI-H460 lung
NCI-H522 lung = tested on: NCI-H522 lung
OVCAR-3 ovarian = tested on: OVCAR-3 ovarian
OVCAR-4 ovarian = tested on: OVCAR-4 ovarian
OVCAR-5 ovarian = tested on: OVCAR-5 ovarian
OVCAR-8 ovarian = tested on: OVCAR-8 ovarian
RXF 393 renal = tested on: RXF 393 renal
RXF-631 renal = tested on: RXF-631 renal
SF-268 CNS = tested on: SF-268 CNS
SF-295 CNS = tested on: SF-295 CNS
SF-539 CNS = tested on: SF-539 CNS
SK-MEL-2 melanoma = tested on: SK-MEL-2 melanoma
SK-MEL-28 melanoma = tested on: SK-MEL-28 melanoma
SK-MEL-5 melanoma = tested on: SK-MEL-5 melanoma
SK-OV-3 ovarian = tested on: SK-OV-3 ovarian
SN12C renal = tested on: SN12C renal
SNB-19 CNS = tested on: SNB-19 CNS
SNB-75 CNS = tested on: SNB-75 CNS
SNB-78 CNS = tested on: SNB-78 CNS
SW-620 colon = tested on: SW-620 colon
TK-10 renal = tested on: TK-10 renal
U251 CNS = tested on: U251 CNS
UACC-257 melanoma = tested on: UACC-257 melanoma
UACC-62 melanoma = tested on: UACC-62 melanoma
UO-31 renal = tested on: UO-31 renal
MOLT-4 leukemia = tested on: MOLT-4 leukemia
RPMI-8226 leukemia = tested on: RPMI-8226 leukemia
XF 498 CNS = tested on: XF 498 CNS
SR leukemia = tested on: SR leukemia

Cc1ccc(NC(=O)CC/C(CC(=O)c2ccc(F)cc2)=N\NC(=O)C(=O)NN)cc1C
TGI (786-0 renal): > 100 µM
TGI (A498 renal): > 100 µM
TGI (A549 NSCLC): > 100 µM
TGI (ACHN renal): > 100 µM
TGI (CAKI-1 renal): > 100 µM
TGI (CCRF-CEM leukemia): > 100 µM
TGI (COLO 205 colon): > 100 µM
TGI (DLD-1 colon): > 100 µM
TGI (DMS 114 small cell lung): > 100 µM
TGI (DMS 273 small cell lung): > 100 µM
TGI (EKVX NSCLC): > 100 µM
TGI (HCC-2998 colon): > 100 µM
TGI (HCT-116 colon): > 100 µM
TGI (HCT-15 colon): > 100 µM
TGI (HL-60(TB) leukemia): > 100 µM
TGI (HOP-18 NSCLC): > 100 µM
TGI (HOP-62 NSCLC): > 100 µM
TGI (HOP-92 NSCLC): > 100 µM
TGI (HT29 colon): > 100 µM
TGI (IGROV1 ovarian): > 100 µM
TGI (K-562 leukemia): > 100 µM
TGI (KM12 colon): > 100 µM
TGI (KM20L2 colon): > 100 µM
TGI (LOX IMVI melanoma): > 100 µM
TGI (LXFL 529 NSCLC): > 100 µM
TGI (M14 melanoma): > 100 µM
TGI (M19-MEL melanoma): > 100 µM
TGI (MALME-3M melanoma): > 100 µM
TGI (NCI-H226 lung): > 100 µM
TGI (NCI-H23 lung): > 100 µM
TGI (NCI-H460 lung): > 100 µM
TGI (NCI-H522 lung): > 100 µM
TGI (OVCAR-3 ovarian): > 100 µM
TGI (OVCAR-4 ovarian): > 100 µM
TGI (OVCAR-5 ovarian): > 100 µM
TGI (OVCAR-8 ovarian): > 100 µM
TGI (RXF 393 renal): > 100 µM
TGI (RXF-631 renal): > 100 µM
TGI (SF-268 CNS): > 100 µM
TGI (SF-295 CNS): > 100 µM
TGI (SF-539 CNS): > 100 µM
TGI (SK-MEL-2 melanoma): > 100 µM
TGI (SK-MEL-28 melanoma): > 100 µM
TGI (SK-MEL-5 melanoma): > 100 µM
TGI (SK-OV-3 ovarian): > 100 µM
TGI (SN12C renal): > 100 µM
TGI (SNB-19 CNS): > 100 µM
TGI (SNB-75 CNS): > 100 µM
TGI (SNB-78 CNS): > 100 µM
TGI (SW-620 colon): > 100 µM
TGI (TK-10 renal): > 100 µM
TGI (U251 CNS): > 100 µM
TGI (UACC-257 melanoma): > 100 µM
TGI (UACC-62 melanoma): > 100 µM
TGI (UO-31 renal): > 100 µM

CCOC(=O)C(=Cc1cc(OC)ccc1OC)C(=O)OCC
TGI (786-0 renal): 14.1 µM
TGI (A498 renal): 28.5 µM
TGI (A549 NSCLC): 26.9 µM
TGI (ACHN renal): 31.8 µM
TGI (CAKI-1 renal): 28.1 µM
TGI (COLO 205 colon): 17.2 µM
TGI (DLD-1 colon): 21.8 µM
TGI (DMS 114 small cell lung): 11.8 µM
TGI (DMS 273 small cell lung): 14.2 µM
TGI (EKVX NSCLC): 31.3 µM
TGI (HCC-2998 colon): 34.8 µM
TGI (HCT-116 colon): 27.5 µM
TGI (HCT-15 colon): 22 µM
TGI (HL-60(TB) leukemia): 6.12 µM
TGI (HOP-18 NSCLC): 23.6 µM
TGI (HOP-62 NSCLC): 23.6 µM
TGI (HOP-92 NSCLC): 17 µM
TGI (HT29 colon): 17 µM
TGI (IGROV1 ovarian): 58.5 µM
TGI (K-562 leukemia): 27.4 µM
TGI (KM12 colon): 19.9 µM
TGI (KM20L2 colon): 17.5 µM
TGI (LOX IMVI melanoma): 19.5 µM
TGI (LXFL 529 NSCLC): 12.2 µM
TGI (M14 melanoma): 24.2 µM
TGI (M19-MEL melanoma): 17.9 µM
TGI (MALME-3M melanoma): 25.5 µM
TGI (MOLT-4 leukemia): 37.9 µM
TGI (NCI-H226 lung): 27 µM
TGI (NCI-H23 lung): 10.9 µM
TGI (NCI-H460 lung): > 100 µM
TGI (NCI-H522 lung): 14.4 µM
TGI (OVCAR-3 ovarian): 22.5 µM
TGI (OVCAR-4 ovarian): 21.6 µM
TGI (OVCAR-8 ovarian): 20.9 µM
TGI (RPMI-8226 leukemia): 10.9 µM
TGI (RXF 393 renal): 6.2 µM
TGI (RXF-631 renal): 32.5 µM
TGI (SF-295 CNS): 26.5 µM
TGI (SF-539 CNS): 15.1 µM
TGI (SK-MEL-2 melanoma): 18.1 µM
TGI (SK-MEL-28 melanoma): 17.1 µM
TGI (SK-MEL-5 melanoma): 17.2 µM
TGI (SK-OV-3 ovarian): 29.9 µM
TGI (SN12C renal): 26.3 µM
TGI (SNB-19 CNS): 25 µM
TGI (SNB-75 CNS): 5.95 µM
TGI (SW-620 colon): 14 µM
TGI (U251 CNS): 20 µM
TGI (UACC-62 melanoma): 6.13 µM
TGI (XF 498 CNS): 23.6 µM

CC(=O)OC1C/C(C)=C/CCC(C)/C=C/C2(C)CCC(C(C)(C)O)C12 (stereo not given)
TGI (786-0 renal): > 100 µM
TGI (A498 renal): > 100 µM
TGI (A549 NSCLC): > 100 µM
TGI (ACHN renal): > 100 µM
TGI (CAKI-1 renal): > 100 µM
TGI (CCRF-CEM leukemia): > 100 µM
TGI (COLO 205 colon): > 100 µM
TGI (DLD-1 colon): > 100 µM
TGI (DMS 114 small cell lung): > 100 µM
TGI (DMS 273 small cell lung): > 100 µM
TGI (EKVX NSCLC): > 100 µM
TGI (HCC-2998 colon): > 100 µM
TGI (HCT-116 colon): 77.1 µM
TGI (HCT-15 colon): > 100 µM
TGI (HL-60(TB) leukemia): 55.5 µM
TGI (HOP-18 NSCLC): > 100 µM
TGI (HOP-62 NSCLC): > 100 µM
TGI (HOP-92 NSCLC): 51.4 µM
TGI (HT29 colon): > 100 µM
TGI (IGROV1 ovarian): > 100 µM
TGI (K-562 leukemia): > 100 µM
TGI (KM12 colon): > 100 µM
TGI (KM20L2 colon): > 100 µM
TGI (LOX IMVI melanoma): > 100 µM
TGI (LXFL 529 NSCLC): > 100 µM
TGI (M14 melanoma): > 100 µM
TGI (M19-MEL melanoma): 88.6 µM
TGI (MALME-3M melanoma): > 100 µM
TGI (MOLT-4 leukemia): > 100 µM
TGI (NCI-H226 lung): > 100 µM
TGI (NCI-H23 lung): > 100 µM
TGI (NCI-H460 lung): > 100 µM
TGI (OVCAR-3 ovarian): > 100 µM
TGI (OVCAR-4 ovarian): > 100 µM
TGI (OVCAR-5 ovarian): > 100 µM
TGI (OVCAR-8 ovarian): > 100 µM
TGI (RPMI-8226 leukemia): 71.7 µM
TGI (RXF 393 renal): 53.3 µM
TGI (SF-268 CNS): > 100 µM
TGI (SF-295 CNS): > 100 µM
TGI (SF-539 CNS): > 100 µM
TGI (SK-MEL-2 melanoma): > 100 µM
TGI (SK-MEL-28 melanoma): > 100 µM
TGI (SK-MEL-5 melanoma): > 100 µM
TGI (SK-OV-3 ovarian): > 100 µM
TGI (SN12C renal): 96.4 µM
TGI (SNB-19 CNS): > 100 µM
TGI (SNB-75 CNS): > 100 µM
TGI (SNB-78 CNS): > 100 µM
TGI (SR leukemia): 47.2 µM
TGI (SW-620 colon): > 100 µM
TGI (TK-10 renal): > 100 µM
TGI (U251 CNS): > 100 µM
TGI (UACC-257 melanoma): > 100 µM
TGI (UACC-62 melanoma): > 100 µM
TGI (UO-31 renal): > 100 µM
TGI (XF 498 CNS): > 100 µM

O=P(O)(O)C1CCCC(P(=O)(O)O)N1 (stereo not given)
TGI (A498 renal): > 100 µM
TGI (A549 NSCLC): > 100 µM
TGI (ACHN renal): > 100 µM
TGI (CCRF-CEM leukemia): > 100 µM
TGI (DMS 114 small cell lung): > 100 µM
TGI (DMS 273 small cell lung): > 100 µM
TGI (EKVX NSCLC): > 100 µM
TGI (HCT-116 colon): > 100 µM
TGI (HL-60(TB) leukemia): > 100 µM
TGI (HOP-62 NSCLC): > 100 µM
TGI (HOP-92 NSCLC): > 100 µM
TGI (HT29 colon): > 100 µM
TGI (IGROV1 ovarian): > 100 µM
TGI (KM12 colon): > 100 µM
TGI (KM20L2 colon): > 100 µM
TGI (M14 melanoma): > 100 µM
TGI (M19-MEL melanoma): > 100 µM
TGI (MOLT-4 leukemia): > 100 µM
TGI (NCI-H226 lung): > 100 µM
TGI (NCI-H23 lung): > 100 µM
TGI (NCI-H460 lung): > 100 µM
TGI (NCI-H522 lung): > 100 µM
TGI (OVCAR-5 ovarian): > 100 µM
TGI (OVCAR-8 ovarian): > 100 µM
TGI (RXF 393 renal): > 100 µM
TGI (RXF-631 renal): > 100 µM
TGI (SF-268 CNS): > 100 µM
TGI (SF-295 CNS): > 100 µM
TGI (SK-MEL-28 melanoma): > 100 µM
TGI (SK-OV-3 ovarian): > 100 µM
TGI (SNB-19 CNS): > 100 µM
TGI (SNB-78 CNS): > 100 µM
TGI (SR leukemia): > 100 µM
TGI (TK-10 renal): > 100 µM
TGI (U251 CNS): > 100 µM
TGI (UACC-257 melanoma): > 100 µM
TGI (UO-31 renal): > 100 µM
